# Measurements taken from US12673954B2 (BRISTOL-MYERS SQUIBB COMPANY, priority 2021, dated 2026).
# How the values were obtained:
# [1] = test system: NF-κB pathway, THP1-Dual™ cells; experiment: STING reporter assay in THP1-Dual cells, NF-κB pathway (SEAP, QUANTI-Blue); format: cell-based, human; conditions: Homo sapiens, THP1-Dual, 20 h, THP1-Dual cells, 10% human plasma, 20 hours; SEAP; 100% activation = 100 μM cGAMP; read-out: NFkB (EC50 μM)
# Summary of the method: (§1)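 Activation normalised between DMSO-only baseline and 100 μM cGAMP maximum, after 20 h compound exposure (starting at 100 μM final) at 37° C, 5% CO2. Supernatant SEAP (QUANTI-Blue, OD620) reports NF-κB; secreted luciferase (QUANTI-Luc, RLU at 5 min) reports IRF.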
# [2] = test system: IRF pathway, THP1-Dual™ cells; experiment: STING reporter assay in THP1-Dual cells, IRF pathway (Lucia luciferase, QUANTI-Luc); format: cell-based, human; conditions: Homo sapiens, THP1-Dual, 20 h, THP1-Dual cells, 10% human plasma, 20 hours; Lucia luciferase; 100% activation = 100 μM cGAMP; read-out: IRF (EC50 μM)
# Summary of the method: as §1
SMILES,EC50 [1] [µM],EC50 [2] [µM]
"O=C(O)c1cc(F)cc2c(Cl)c(CNC(=O)c3cnn4cccnc34)oc12 [EXAMPLE 172, 3-chloro-5-fluoro-2-((pyrazolo[1,5-a]pyrimidine-3-carboxamido)methyl)benzofuran-7-carboxylic acid]",74,62
"O=C(O)c1cc(Cl)cc2c(Cl)c(CNC(=O)c3cnn4cccnc34)oc12 [EXAMPLE 174, 3,5-Dichloro-2-((pyrazolo[1,5-a]pyrimidine-3-carboxamido)methyl)benzofuran-7-carboxylic acid]",91,83
"Cc1cc(C(=O)O)c2oc(CNC(=O)c3cnn4cc(C)cnc34)c(Cl)c2c1 [EXAMPLE 177, 3-Chloro-5-methyl-2-((6-methylpyrazolo[1,5-a]pyrimidine-3-carboxamido)methyl)benzofuran-7-carboxylic acid]",> 100,87
"Cc1cc(C(=O)O)c2oc(CNC(=O)c3cncc4cccnc34)c(Cl)c2c1 [EXAMPLE 178, 2-((1,6-naphthyridine-8-carboxamido)methyl)-3-chloro-5-methylbenzofuran-7-carboxylic acid]",50,42
"Cc1cc(C(=O)O)c2oc(CNC(=O)c3cncc4cccnc34)cc2c1 [EXAMPLE 192, 2-((1,6-naphthyridine-8-carboxamido)methyl)-5-methylbenzofuran-7-carboxylic acid]",94,79
"CCOC(=O)c1cccc2cc(CN3Cc4ccncc4C3=O)oc12 [EXAMPLE 203, Ethyl 2-((3-oxo-1,3-dihydro-2H-pyrrolo[3,4-c]pyridin-2-yl)methyl)benzofuran-7-carboxylate]",65,44
"O=C(OCC(F)(F)F)c1cccc2cc(CN3Cc4ccncc4C3=O)oc12 [EXAMPLE 204, 2,2,2-Trifluoroethyl 2-((3-oxo-1,3-dihydro-2H-pyrrolo[3,4-c]pyridin-2-yl)methyl)benzofuran-7-carboxylate]",41,32
"CCOC(=O)c1cccc2cc(CN3CCc4ccncc4C3=O)oc12 [EXAMPLE 205, Ethyl 2-((1-oxo-3,4-dihydro-2,7-naphthyridin-2(1H)-yl)methyl)benzofuran-7-carboxylate]",9.9,9.8
"CC(C)OC(=O)c1cccc2cc(CN3CCc4ccncc4C3=O)oc12 [EXAMPLE 206, Isopropyl 2-((1-oxo-3,4-dihydro-2,7-naphthyridin-2(1H)-yl)methyl)benzofuran-7-carboxylate]",12,13
"O=C(OC1CC1)c1cccc2cc(CN3CCc4ccncc4C3=O)oc12 [EXAMPLE 207, Cyclopropyl 2-((1-oxo-3,4-dihydro-2,7-naphthyridin-2(1H)-yl)methyl)benzofuran-7-carboxylate]",17,9.2
O=C(OC(C(F)(F)F)C(F)(F)F)c1cccc2cc(CN3CCc4ccncc4C3=O)oc12 [EXAMPLE 209],19,18
"O=C(OCCO)c1cccc2cc(CN3CCc4ccncc4C3=O)oc12 [EXAMPLE 211, 2-Hydroxyethyl 2-((1-oxo-3,4-dihydro-2,7-naphthyridin-2(1H)-yl)methyl)benzofuran-7-carboxylate]",31,23
"CC(F)(F)COC(=O)c1cccc2cc(CN3CCc4ccncc4C3=O)oc12 [EXAMPLE 212, 2,2-Difluoropropyl 2-((1-oxo-3,4-dihydro-2,7-naphthyridin-2(1H)-yl)methyl)benzofuran-7-carboxylate]",58,52
"O=C(OCC(F)(F)C(F)F)c1cccc2cc(CN3CCc4ccncc4C3=O)oc12 [EXAMPLE 213, 2,2,3,3-Tetrafluoropropyl 2-((1-oxo-3,4-dihydro-2,7-naphthyridin-2(1H)-yl)methyl)benzofuran-7-carboxylate]",86,79
"O=C(OCC(F)F)c1cccc2cc(CN3CCc4ccncc4C3=O)oc12 [EXAMPLE 214, 2,2-Difluoroethyl 2-((1-oxo-3,4-dihydro-2,7-naphthyridin-2(1H)-yl)methyl)benzofuran-7-carboxylate]",9.3,8.2
"O=C(OCC(F)(F)F)c1cccc2cc(CN3CCc4ccncc4C3=O)oc12 [EXAMPLE 215, 2,2,2-Trifluoroethyl 2-((1-oxo-3,4-dihydro-2,7-naphthyridin-2(1H)-yl)methyl)benzofuran-7-carboxylate]",14,12
"O=C(NCc1cc2cccc(C(=O)OCC(F)(F)F)c2o1)c1cnccn1 [EXAMPLE 216, 2,2,2-Trifluoroethyl 2-((pyrazine-2-carboxamido)methyl)benzofuran-7-carboxylate]",17,12

SMILES,EC50 [1] [µM],EC50 [2] [µM]
"O=C(OCC(F)(F)F)c1cccc2cc(CNC(=O)c3cnn4cccnc34)oc12 [EXAMPLE 217, 2,2,2-Trifluoroethyl 2-((pyrazolo[1,5-a]pyrimidine-3-carboxamido)methyl)benzofuran-7-carboxylate]",1.6,1.3
"CC(OC(=O)c1cccc2cc(CNC(=O)c3cnn4cccnc34)oc12)C(F)(F)F (centres unmarked) [EXAMPLE 218, 1,1,1-Trifluoropropan-2-yl 2-((pyrazolo[1,5-a]pyrimidine-3-carboxamido)methyl)benzofuran-7-carboxylate]",4.4,5.5
"Cc1ccn2ncc(C(=O)NCc3cc4cccc(C(=O)OCC(F)(F)F)c4o3)c2n1 [EXAMPLE 219, 2,2,2-Trifluoroethyl 2-((5-methylpyrazolo[1,5-a]pyrimidine-3-carboxamido)methyl)benzofuran-7-carboxylate]",10,7.7
"Cc1cnc2c(C(=O)NCc3cc4cccc(C(=O)OCC(F)(F)F)c4o3)cnn2c1 [EXAMPLE 220, 2,2,2-Trifluoroethyl 2-((6-methylpyrazolo[1,5-a]pyrimidine-3-carboxamido)methyl)benzofuran-7-carboxylate]",4.8,3.8
"Cc1ccnc2c(C(=O)NCc3cc4cccc(C(=O)OCC(F)(F)F)c4o3)cnn12 [EXAMPLE 221, 2,2,2-Trifluoroethyl 2-((7-methylpyrazolo[1,5-a]pyrimidine-3-carboxamido)methyl)benzofuran-7-carboxylate]",83,42
"O=C(OCC(F)(F)F)c1cccc2c(Cl)c(CNC(=O)c3cnn4cccnc34)oc12 [EXAMPLE 223, 2,2,2-Trifluoroethyl 3-chloro-2-((pyrazolo[1,5-a]pyrimidine-3-carboxamido)methyl)benzofuran-7-carboxylate]",0.62,0.67
"CC(C)OC(=O)c1ccc(F)c2cc(CNC(=O)c3cnn4cccnc34)oc12 [EXAMPLE 224, Isopropyl 4-fluoro-2-((pyrazolo[1,5-a]pyrimidine-3-carboxamido)methyl)benzofuran-7-carboxylate]",4,5.9
"Cc1ccc(C(=O)OC(C)C(F)(F)F)c2oc(CNC(=O)c3cnn4cccnc34)cc12 (centres unmarked) [EXAMPLE 225, 1,1,1-Trifluoropropan-2-yl 4-methyl-2-((pyrazolo[1,5-a]pyrimidine-3-carboxamido)methyl)benzofuran-7-carboxylate]",7.5,7.5
O=C(OCC(F)(F)F)c1cc(F)c(F)c2cc(CNC(=O)c3cnn4cccnc34)oc12 [EXAMPLE 226],1.3,1.4
"CC(OC(=O)c1cc(F)c(F)c2cc(CNC(=O)c3cnn4cccnc34)oc12)C(F)(F)F (centres unmarked) [EXAMPLE 227, 1,1,1-Trifluoropropan-2-yl 4,5-difluoro-2-((pyrazolo[1,5-a]pyrimidine-3-carboxamido)methyl)benzofuran-7-carboxylate]",4.2,3.8
"O=C(OCC(F)(F)F)c1cc(F)cc2cc(CN3CCc4ccncc4C3=O)oc12 [EXAMPLE 228, 2,2,2-Trifluoroethyl 5-fluoro-2-((1-oxo-3,4-dihydro-2,7-naphthyridin-2(1H)-yl)methyl)benzofuran-7-carboxylate]",6.5,6.1
"O=C(NCc1cc2cc(F)cc(C(=O)OCC(F)(F)F)c2o1)c1cnccn1 [EXAMPLE 229, 2,2,2-Trifluoroethyl 5-fluoro-2-((pyrazine-2-carboxamido)methyl)benzofuran-7-carboxylate]",4.2,4.2
"O=C(OCC(F)(F)F)c1cc(F)cc2cc(CNC(=O)c3cnc4cccnn34)oc12 [EXAMPLE 230, 2,2,2-Trifluoroethyl 5-fluoro-2-((imidazo[1,2-b]pyridazine-3-carboxamido)methyl)benzofuran-7-carboxylate]",0.95,0.93
"O=C(OCC(F)(F)F)c1cc(F)cc2cc(CNC(=O)c3cnn4cccnc34)oc12 [EXAMPLE 231, 2,2,2-Trifluoroethyl 5-fluoro-2-((pyrazolo[1,5-a]pyrimidine-3-carboxamido)methyl)benzofuran-7-carboxylate]",0.65,0.5
"CC(C)OC(=O)c1cc(F)cc2cc(CNC(=O)c3cnn4cccnc34)oc12 [EXAMPLE 232, Isopropyl 5-fluoro-2-((pyrazolo[1,5-a]pyrimidine-3-carboxamido)methyl)benzofuran-7-carboxylate]",0.92,1
"O=C(OC1COC1)c1cc(F)cc2cc(CNC(=O)c3cnn4cccnc34)oc12 [EXAMPLE 233, Oxetan-3-yl 5-fluoro-2-((pyrazolo[1,5-a]pyrimidine-3-carboxamido)methyl)benzofuran-7-carboxylate]",2,1.7
"O=C(OC1CCC1)c1cc(F)cc2cc(CNC(=O)c3cnn4cccnc34)oc12 [EXAMPLE 234, Cyclobutyl 5-fluoro-2-((pyrazolo[1,5-a]pyrimidine-3-carboxamido)methyl)benzofuran-7-carboxylate]",1.1,1.1
